As usually defined, the solubility is the concentration that dissolves in the medium under given conditions. In general, melting point refers to the temperature of the solid-liquid transition. The term inhibition denotes the change of the read-out against control, counted positive when it falls.

Series [1] is described as follows: Lower limits of aqueous solubility by nephelometry. The class given is physicochemical. The note with it: phosphate-buffered saline with 0.005% (v/v) P20 and 5% DMSO, aqueous with cosolvent or surfactant or cyclodextrin, kinetic from dmso stock, 0.005% (v/v) P20, 5% DMSO, read-out: Solubility Lower Limit Range. The procedure: Lower limits of aqueous compound solubility were determined in a nepholometer in phosphate-buffered saline containing 0.005% (v/v) P20 and a final concentration of 5% DMSO. Briefly, compounds were initially dissolved in DMSO as a 10 mM stock solution and diluted to 1 mM and 0.5 mM working solutions with neat DMSO. The compounds were then titrated in DMSO and a constant volume of DMSO stock added to filtered PBS/P20 solution so that the final DMSO concentration was 5%. The solubility was then determined in clear, flat-bottom 96-well plates using the nephelometer and reported as the concentration range at which the compound begins to precipitate from solution.

Series [2] relates to LPS-induced IL-6 production in RAW264.7 mouse macrophage cell line. Description: Inhibition of LPS-induced production of IL-6 in RAW264.7 macrophages. The note with it: 50 uM compound, 100 ng/ml LPS 4 hr, RAW264.7 cells, relative to LPS+DMSO control. The class given is cell-based. The procedure:
MIF is an important factor in the innate immune response to toxins such as the bacterial endotoxin lipopolysaccharide (LPS). […] A compound with the ability to inhibit the biological activity of MIF would therefore inhibit the activation of cytokine production by macrophages in response to LPS. The RAW264.7 mouse macrophage cell line was propagated in DMEM/10% foetal calf serum (FCS) at 37° C. in 5% CO2. 24 hr prior to assay cells were seeded in 96-well tissue culture plates. Cells were allowed to adhere for 4 hr prior to transfer to DMEM/0.5% FCS for 18 hr. Cells were then treated with 50 uM compound in DMSO for 30 min prior to stimulation for 4 hr with 100 ng/ml LPS. Cell culture supernatants were then collected from each well and assayed for IL-6 levels by ELISA (R&D Systems) according to the manufacturer's instructions.

Series [3] has as its target T1, Recombinant human MIF protein (Homo sapiens, UniProt P14174).
T1 sequence (P14174 2-115 limits assumed): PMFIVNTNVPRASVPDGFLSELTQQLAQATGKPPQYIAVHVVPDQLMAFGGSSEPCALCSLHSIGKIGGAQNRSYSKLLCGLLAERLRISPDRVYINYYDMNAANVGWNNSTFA
Description: Inhibition of MIF tautisomerase activity (L-dopachrome). The class given is biochemical. The settings on record: mean±standard deviation of 2-4 experiments; for inhibition at 50 µM: 50 uM compound; for inhibition at 100 µM: 100 uM compound. The procedure: MIF protein has the ability in vitro to catalyze the tautisomerization of dopachrome^(15).
Recombinant human MIF protein was pre-incubated with compounds as indicated prior to the addition of L-dopachrome substrate. Tautomerase activity was determined by measurement of die decrease in absorbance at 475 nm after 2 min. […]

The test system of another series is C57Bl/6j mice. Description: In vivo assay of MIF antagonism: murine endotoxic shock model, serum TNF. The settings on record: intra-peritoneal, 10, 1 and 0.1 mg/kg at 24 hours and 1 hour before LPS 1 mg/kg (FIG. 3). More on the design: species or system mouse. As for the experimental part: The activities of compounds were studied in the murine endotoxic shock model. This model has been previously shown to be dependent on MIF^(14). Administration of a compound which inhibits the cytokine activity of MIF would be expected to result hi a reduction in serum level s of the pro-inflammatory cytokine TNF.
Endotoxaemia was induced by intra-peritoneal Injection of C57Bl/6j mice with lipopolysaccharide (LPS) (1 mg/kg) in 200 μl saline. Animals were treated with either a saline solution (control) only, or LPS with vehicle or compounds B1 and A3 in vehicle at doses of 10, 1 and 0.1 mg/kg body weight, administered by intra-peritoncal injection at 24 hours and 1 hour before intra-peritoneal LPS injection. After 1 hour mice were humanely killed by CO2 inhalation then neck dislocation. Serum was obtained from blood obtained by cardiac puncture prior to death and measured for TNF levels by ELISA according to the manufacturer's instructions.

Values after ≈ are worked out from the molar mass of the structure shown.

As for `COC(=O)CCSCC(=O)c1ccc2c(c1)CC(=O)N2` [Compound 1, methyl 3-((2-oxo-2-(2-oxo-2,3-dihydro-1H-indol-5-yl)ethyl)thio)propanoate], the melting point was in the range of 106 to 108 °C. The solubility in series [1] fell in the range of 0.018 to 0.063 mg/mL (≈ 61.4 to 215 µM). The inhibition at 50 µM in series [2] was 13 ± 23%.
As for `O=C(O)CCSCC(=O)c1cc2sc(=O)[nH]c2cc1Cl` [Compound 30, 3-((2-(5-chloro-2-oxo-2,3-dihydro-1,3-benzothiazol-6-yl)-2-oxoethyl)thio)propanoic acid], the melting point lay within 195 to 197 °C. In series [3], the inhibition at 50 µM worked out at 12 ± 11% and the inhibition at 100 µM turned out to be 27 ± 16%.
On to `O=C(CSCCCCCCO)c1ccc2[nH]c(=O)oc2c1` [Compound 15, 6-(((6-Hydroxyhexyl)thio)acetyl)-1,3-benzoxazol-2(3H)-one], for which, in series [1], the solubility was 0.077 to 0.25 mg/mL (≈ 249 to 808 µM). In the series on C57Bl/6j mice, the “suppression of LPS-induced serum TNF levels, in words” value is “significant dose-dependent suppression”. This compound had an inhibition at 50 µM in series [2] of 42 ± 40%.
With `COC(=O)CSCC(=O)c1ccc2[nH]c(=O)[nH]c2c1` [Compound 5, methyl ((2-oxo-2-(2-oxo-2,3-dihydro-1H-benzimidazol-5-yl)ethyl)thio)acetate], the melting point is 177 to 178.5 °C.
As for `CCCCSCC(=O)c1cc2sc(=O)n(C)c2cc1Cl` [Compound 31, 6-((butylthio)acetyl)-5-chloro-3-methyl-1,3-benzothiazol-2(3H)-one], in series [3], the inhibition at 50 µM was found to be 2 ± 3% and the inhibition at 100 µM came out at 8 ± 8%.
In turn, `COC(=O)CCSCC(=O)c1cc2c(cc1Cl)NC(=O)C2` [Compound 12, methyl 3-((2-(6-chloro-2-oxo-2,3-dihydro-1H-indol-5-yl)-2-oxoethyl)thio)propanoate] displayed a melting point of 75 to 77 °C. In addition, the inhibition at 50 µM in series [2] stood at 60%.
Consider `Cn1c(=O)n(C)c2cc(C(=O)CSCCC(=O)O)ccc21` [Compound 23, 3-((2-(1,3-dimethyl-2-oxo-2,3-dihydro-1H-benzimidazol-5-yl)-2-oxoethyl)thio) propanoic acid], for which the melting point was in the range of 174 to 176 °C. In series [3], the inhibition at 50 µM stood at 0% and the inhibition at 100 µM turned out to be 3 ± 2%.
`O=C(O)CSCC(=O)c1ccc2[nH]c(=O)oc2c1` [Compound 17, ((2-Oxo-2-(2-oxo-2,3-dihydro-1,3-benzoxazol-6-yl)ethyl)thio)acetic acid] came in with an inhibition at 50 µM in series [2] of 8 ± 90%.
`Cn1c(=O)n(C)c2cc(C(=O)CSCCC(=O)O)c(Cl)cc21` [Compound 28, 3-((2-(6-chloro-1,3-dimethyl-2-oxo-2,3-dihydro-1H-benzimidazol-5-yl)-2-oxoethyl)thio)propanoic acid]: the melting point lay in the range of 148 to 150 °C. Also, in series [3], the inhibition at 50 µM turned out to be 12 ± 6% and the inhibition at 100 µM worked out at 27 ± 6%.
Turning to `O=C(CSCCCCCCO)c1ccc2[nH]c(=O)[nH]c2c1` [Compound 10, 5-(((6-hydroxyhexyl)thio)acetyl)-1,3-dihydro-2H-benzimidazol-2-one], the melting point fell in the range of 180 to 181 °C. Also, at 50 µM the inhibition in series [2] was 25%.
Regarding `CCCCSCC(=O)c1ccc2[nH]c(=O)[nH]c2c1` [Compound 22, 5-((butylthio)acetyl)-1,3-dihydro-2H-benzimidazol-2-one], the melting point is 211 to 213 °C. In series [3], the inhibition at 50 µM amounted to 4 ± 6% and the inhibition at 100 µM was found to be 4 ± 7%.
Regarding `O=C1Cc2cc(C(=O)CSCCCCCCO)c(Cl)cc2N1` [Compound 11, 6-chloro-5-(((6-hydroxyhexyl)thio)acetyl)-1,3-dihydro-2H-indol-2-one], the inhibition at 50 µM in series [2] turned out to be 48 ± 24%.
As to `O=C1Cc2cc(C(=O)CSCCCCCCO)ccc2N1` [Compound 9, 5-(((6-hydroxyhexyl)thio)acetyl)-1,3-dihydro-2H-indol-2-one], the melting point lay in the range of 105 to 108 °C.
`CCCCSCC(=O)c1ccc2[nH]c(=O)oc2c1` [Compound 16, 6-((Butylthio)acetyl)-1,3-benzoxazol-2(3H)-one] returned an inhibition at 50 µM in series [2] of 12 ± 63%.
As for `O=C(O)CCSCC(=O)c1ccc2[nH]c(=O)oc2c1` [Compound 14, 3-((2-Oxo-2-(2-oxo-2,3-dihydro-1,3-benzoxazol-6-yl)ethyl)thio)propanoic acid], in series [1], the solubility is > 0.14 mg/mL.
For the compound `O=C(O)CCSCC(=O)c1cc2[nH]c(=O)[nH]c2cc1Cl` [Compound 26, 3-((2-(6-chloro-2-oxo-2,3-dihydro-1H-benzimidazol-5-yl)-2-oxoethyl)thio)propanoic acid], in series [3], the inhibition at 50 µM is 2 ± 3% and the inhibition at 100 µM was 4 ± 6%.
The compound `CC(=O)OCCCCCCSCC(=O)c1ccc2c(c1)CC(=O)N2` [Compound 8, 6-((2-oxo-2-(2-oxo-2,3-dihydro-1H-indol-5-yl)ethyl)thio)hexyl acetate] yielded a melting point of 86 to 87 °C. This compound also displayed an inhibition at 50 µM in series [2] of 42 ± 11%.
Consider `CCCCSCC(=O)c1cc2c(cc1Cl)NC(=O)C2` [Compound 20, 5-((Butylthio)acetyl)-6-chloro-1,3-dihydro-2H-indol-2-one], for which, in series [2], the inhibition at 50 µM came to 59 ± 11%.
As to `Cn1c(=O)sc2cc(C(=O)CSCCC(=O)O)c(Cl)cc21` [Compound 32, 3-((2-(5-chloro-3-methyl-2-oxo-2,3-dihydro-1,3-benzothiazol-6-yl)-2-oxoethyl)thio)propanoic acid], the melting point fell in the range of 120 to 121 °C. In series [3], the inhibition at 50 µM was 4 ± 1% and the inhibition at 100 µM amounted to 11 ± 4%.
`O=C(O)CCSCC(=O)c1ccc2[nH]c(=O)sc2c1` [Compound 18, 3-((2-Oxo-2-(2-oxo-23-dihydro-1,3-benzothiazol-6-yl)ethyl)thio)propanoic acid] gave an inhibition at 50 µM in series [2] of 49 ± 34%.
For `CCCCSCC(=O)c1cc2c(cc1Cl)n(C)c(=O)n2C` [Compound 27, 5-((butylthio)acetyl)-6-chloro-1,3-dimethyl-1,3-dihydro-2H-benzimidazol-2-one], in series [3], the inhibition at 50 µM stood at 28 ± 17% and the inhibition at 100 µM is 44 ± 12%.
The compound `CCCCSCC(=O)c1ccc2c(c1)n(C)c(=O)n2C` [Compound 24, 5-((butylthio)acetyl)-1,3-dimethyl-1,3-dihydro-2H-benzimidazol-2-one] registered a melting point of 80 to 81 °C. Besides, in series [3], the inhibition at 50 µM was 15 ± 6% and the inhibition at 100 µM turned out to be 34 ± 12%.
The corresponding values for `CCCCSCC(=O)c1cc2[nH]c(=O)[nH]c2cc1Cl` [Compound 25, 5-((butylthio)acetyl)-6-chloro-1,3-dihydro-2H-benzimidazol-2-one] are 199 to 201 °C, 4 ± 3% and 12 ± 4%.
For `O=C(O)CSCC(=O)c1ccc2[nH]c(=O)[nH]c2c1` [Compound 6, ((2-oxo-2-(2-oxo-2,3-dihydro-1H-benzimidazol-5-yl)ethyl)thio)acetic acid], the melting point is 230 °C (dec.). For the same compound, the solubility in series [1] was 0.067 to 0.25 mg/mL (≈ 252 to 939 µM).
The compound `CCCCSCC(=O)c1cc2sc(=O)[nH]c2cc1Cl` [Compound 29, 6-((butylthio)acetyl)-5-chloro-1,3-benzothiazol-2(3H)-one] registered a melting point of 102.5 to 115 °C. In series [3], the inhibition at 50 µM was 24 ± 1% and the inhibition at 100 µM was determined as 42 ± 9%.
As to `CCCCSCC(=O)c1ccc2c(c1)CC(=O)N2` [Compound 21, 5-((Butylthio)acetyl)-1,3-dihydro-2H-indol-2-one], in series [2], the inhibition at 50 µM was determined as 41 ± 54%.
`O=C(CSCCO)c1ccc2[nH]c(=O)[nH]c2c1` [Compound 7, 5-(((2-hydroxyethyl)thio)acetyl)-1,3-dihydro-2H-benzimidazol-2-one]: the melting point is 320 °C (dec.).

Values taken from US20090130165A1, “MIF Inhibitors” (Cortical Pty Ltd, priority 2005, published 2009).
